Reference: publication PMC4384300, “Evaluation of the in vitro trypanocidal activity of methylated flavonoid constituents of Vitex simplicifolia leaves” (BMC Complementary and Alternative Medicine, 2015)
In brackets after ≈: the same amount, converted by molar mass. Read-outs that look alike come from different tables or passages of the source.

Columns and labels:
L6 cells = test: Cytotoxicity in rat skeletal myoblast cell line (L6 cells); format: cell-based
Description: Cytotoxicity was determined using a rat skeletal myoblast cell line (L6 cells). The culture medium was RPMI 1640 supplemented with L-glutamine 2 mM, HEPES 5.95 g/l, NaHCO3 2 g/l and 10% foetal bovine serum. Podophyllotoxin (Sigma-Aldrich) was used as the reference drug. The assay was performed following the antitrypanosomal assay protocol as described above. The IC50 values were calculated from the sigmoidal growth inhibition curves using Softmax Pro software (Molecular Devices Corp.). Tests were done in three independent experiments in duplicate.

[1] = test system: Trypanosoma brucei rhodesiense STIB 900 bloodstream forms; test: In vitro trypanocidal activity (Alamar Blue assay, 72 h); format: cell-based; details: for IC50: Trypanosoma brucei, 72 h, read-out: T.b.rhodesiense IC50; for SI: selectivity index (IC50 of L6 cells/ IC50 of T.b.rhodesiense): L6 cells versus T. b. rhodesiense
Description: Minimum essential medium (50 μl) supplemented according to a standard method, with 2-mercaptoethanol and 15% heat inactivated horse serum was added to each well of a 96-well microtiter plate. Serial three-fold compound dilutions were prepared covering a range from 90 to 0.123 μg/ml. Then 10^4 bloodstream forms of Trypanosoma brucei rhodesiense STIB 900 (a clone of a population isolated in 1982 from a patient in Tanzania) in 50 μl culture medium were added to each well and the plate incubated at 37°C under a 5% CO2 atmosphere for 72 h. Ten microlitres of Alamar Blue (12.5 mg resazurin dissolved in 100 ml distilled water) were then added to each well and incubation continued for a further 2–4 h. The plate was then read in a Spectramax Gemini XS microplate fluorometer (Molecular Devices Cooperation, Sunnyvale, CA, USA) using an excitation wavelength of 536 nm and emission wavelength of 588 nm. Fluorescence development was measured and expressed as percentage of the control. Data were transferred into the graphic programme Softmax Pro (Molecular Devices) which calculated IC50 values. Melarsoprol was used as standard drug.

[2] = T. b. rhodesiense STIB 900 bloodstream forms, 72 h incubation, Alamar Blue
[3] = rat skeletal myoblast L6 cells, cytotoxicity, read-out: L6 Cells IC50

| Molecule | IC50 (L6 cells; [3]) | IC50 [1, 2] | also measured |
| --- | --- | --- | --- |
| 2-(3′,4′-dimethoxyphenyl)-7-hydroxychromen-4-one [Compound 7] |  |  | L6 Cells IC50 (L6 cells; rat skeletal myoblast L6 cells, cytotoxicity): 1.58 µg/mL; T.b.rhodesiense IC50 [1, 2]: 10.8 µg/mL |
| COc1cc(-c2oc3cc(O)cc(O)c3c(=O)c2OC)ccc1O [Compound 2, 2-(5′-methoxyphenyl) 4′,5,7-trihydroxy-3-methoxychromen-4-one] | 6.64 µg/mL (≈ 20.1 µM) | 12.3 µg/mL (≈ 37.2 µM) |  |
| COc1cc2oc(-c3ccc(O)cc3)c(OC)c(=O)c2c(O)c1OC [Compound 3, Penduletin] | 14 µg/mL (≈ 40.7 µM) |  | T.b.rhodesiense IC50 [1, 2]: 13.8 µg/mL |
| COc1cc(O)c2c(=O)c(OC)c(-c3ccc(O)cc3)oc2c1 [Compound 4, 2-(4′-hydroxyphenyl)-5-hydroxy 3,7-dimethoxy chromen-4-one] | 28.2 µg/mL (≈ 89.7 µM) | 19.4 µg/mL (≈ 61.7 µM) | SI: selectivity index (IC50 of L6 cells/ IC50 of T.b.rhodesiense) [1]: 1.4 |
| O=c1c(O)c(-c2ccc(O)cc2)oc2cc(O)cc(O)c12 [Compound 5, 2-(4-hydroxyphenyl)-3,5,7-trihydroxy chromen-4-one] | 100 µg/mL (≈ 349 µM) | 23.7 µg/mL (≈ 82.8 µM) |  |
| COc1ccc(-c2oc3cc(OC)c(OC)c(O)c3c(=O)c2OC)cc1OC [Compound 6, Artemetin] | 46.2 µg/mL (≈ 119 µM) | 4.7 µg/mL (≈ 12.1 µM) | SI: selectivity index (IC50 of L6 cells/ IC50 of T.b.rhodesiense) [1]: 9.8 |
| Nc1nc(N)nc(Nc2ccc([As]3SCC(CO)S3)cc2)n1 (stereo not shown) [Melarsoprol, reference compound] |  |  | IC50 [1]: 0.002 µg/mL |
| COc1cc([C@@H]2c3cc4c(cc3[C@H](O)[C@H]3COC(=O)[C@H]23)OCO4)cc(OC)c1OC [Podophyllotoxin, reference compound] |  |  | IC50 (L6 cells; Rattus norvegicus, L6, read-out: L6 Cells IC50): 0.005 µg/mL (≈ 0.0121 µM) |
